Source: US20210290553A1, “HC-1119 FORMULATION, PREPARATION METHOD AND USE THEREOF” (HINOVA PHARMACEUTICALS INC., priority 2018, published 2021)
Like-named read-outs stand apart in the source and are kept apart here.

Assays:
[1] = 160 mg QD 49 days, cited from earlier work
[2] = Permeability evaluated by Caco-2 cell model; assay type: in vitro ADME; conditions: human; 10 μM HC-1119, Caco-2 cell model; read-out: apparent permeability coefficient
Text: (§1) Therefore, HC-1119 is an insoluble drug with high permeability, and belongs to the second category of BSC classification, and thus it is extremely important to improve the bioavailability thereof.

[3] = Clinical pharmacokinetic test of HC-1119 soft capsule; assay type: in vivo; conditions: human, plasma, oral, HC-1119 80 mg, day 84
Procedure: (1) Dosage: 80 mg/day (2 soft capsules of 40 mg)
(2) Administration way: continuous administration, once a day, the first administration being orally taken with empty stomach, thereafter no restriction on diet.
In the pharmacokinetic study, 9 subjects participated in this study.
The drug was taken by the subjects with empty stomach on the first day of the test, and 0˜0.5 h before taking the drug as well as 0.5 h, 0.75 h, 1 h, 2 h (±5 min), 4 h, 8 h, 12 h (±15 min), 24 h (±30 min) before administration on the second day), blood samples were collected, and 3 mL venous blood was drawn at each time point, then placed in an anticoagulant tube (the type of anticoagulant was determined according to the established analytical method).
0˜0.5 h before administration on day 7, 21, 35, 42, 56, 70, and 84 of continuous dosing, as well as 0.5 h, 0.75 h, 1 h, 2 h (±5 min), 4 h, 8 h, 12 h (±15 min), 24 h (±30 min, before administration on day 85) after administration on day 84, 3 mL venous blood was collected at each time point and placed in an anticoagulant tube (the type of anticoagulant was determined according to the established analytical method).
The sample should be centrifuged as soon as possible (about 3000 rpm, 10 min) to separate the plasma. The separated plasma samples need to be stored in two parts in a plasma cryotube. […]

[4] = Physical and chemical properties: solubility in water; assay type: physicochemical
Text: as §1

Row | Papp at 10 μM [2] [×10⁻⁶ cm/s] | AUC at 84 day ([3]; read-out: steady-state AUC on day 84) [µg·h/mL] | concentration at 84 day ([3]; read-out: steady-state Ctrough on day 84) [ng/mL] | solubility in water [4] | Compound | AUCtau ([1]; Median) [µg·h/mL] | CL/F ([1]; Median) [L/h] | Cmax ([1]; Median) [ng/mL] | Cmin ([1]; Median) [ng/mL] | tmax ([1]; Median) [min] | AUCtau ([1]; Min-Max) [µg·h/mL] | Cmax ([1]; Min-Max) [ng/mL] | Cmin ([1]; Min-Max) [ng/mL] | tmax ([1]; Min-Max) [min] | AUCtau ([1]; mean values) [µg·h/mL] | CL/F ([1]; mean values) [L/h] | Cmax ([1]; mean values) [ng/mL] | Cmin ([1]; mean values) [ng/mL] | Cmin ([1]; mean values, listed as enzalutamide) [ng/mL]
1 | – | – | – | – | CNC(=O)c1ccc(N2C(=S)N(c3ccc(C#N)c(C(F)(F)F)c3)C(=O)C2(C)C)cc1F [Enzalutamide, enzalutamide] | 295.6 | 0.541 | 15550 | 11450 | 61.2 | 240 to 593 | 11800 to 28000 | 6920 to 22400 | 31.2 to 181 | 321.5 | 0.520 | 16590 | 12000 | 12000
2 | 11.4 to 13.6 | 480 | 18900 | difficult to dissolve in water | [2H]C([2H])([2H])NC(=O)c1ccc(N2C(=S)N(c3ccc(C#N)c(C(F)(F)F)c3)C(=O)C2(C)C)cc1F [HC-1119, 4-{3-[4-cyano-3-(trifluoromethyl)phenyl]-5,5-dimethyl-4-oxo-2-thio-1-imidazolidinyl}-2-fluoro-N-trideuteromethylbenzamide] | – | – | – | – | – | – | – | – | – | – | – | – | – | –
